The text below walks through data of patent US20240246946A1, “MODULATORS OF TREX1” (Constellation Pharmaceuticals, Inc., priority 2021, published 2024).

In experiment [1] the target is T1, full length mouse TREX1 (Mus musculus, UniProt Q91XB0).
T1 construct: N-terminally His-Tev tagged full length mouse TREX1; made in house; host or cells: E. coli
T1 sequence (Q91XB0 1-314): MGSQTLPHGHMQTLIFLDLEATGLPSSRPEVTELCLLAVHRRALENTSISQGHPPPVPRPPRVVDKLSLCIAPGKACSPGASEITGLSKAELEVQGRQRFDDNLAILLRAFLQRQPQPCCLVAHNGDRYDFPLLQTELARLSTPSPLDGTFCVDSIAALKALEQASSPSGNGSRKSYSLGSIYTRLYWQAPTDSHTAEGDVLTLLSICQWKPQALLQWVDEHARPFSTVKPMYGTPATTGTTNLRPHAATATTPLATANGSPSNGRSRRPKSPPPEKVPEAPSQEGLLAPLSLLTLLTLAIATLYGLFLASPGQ
The experiment can be described thus: mTREX1 Biochemical Assay (fluorescence, dsDNA substrate degradation). Conditions: biochemical, read-out: mTREX1 IC50. Put shortly: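 Reaction run 18 h at 25° C. with 60 nM TEX615/quencher-labelled dsDNA and 6 pM mouse TREX1 in Tris buffer (pH 7.4, 5 mM MgCl2, 1.0% DMSO), enzyme having sat 4 h with compound across 10 concentrations. EDTA quench; substrate degradation measured as fluorescence increase.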

In experiment [2] the target is T2, full length human TREX1 (Homo sapiens, UniProt Q9NSU2).
T2 construct: N-terminally His-Tev tagged full length human TREX1; made in house; host or cells: E. coli
T2 sequence (Q9NSU2 1-314): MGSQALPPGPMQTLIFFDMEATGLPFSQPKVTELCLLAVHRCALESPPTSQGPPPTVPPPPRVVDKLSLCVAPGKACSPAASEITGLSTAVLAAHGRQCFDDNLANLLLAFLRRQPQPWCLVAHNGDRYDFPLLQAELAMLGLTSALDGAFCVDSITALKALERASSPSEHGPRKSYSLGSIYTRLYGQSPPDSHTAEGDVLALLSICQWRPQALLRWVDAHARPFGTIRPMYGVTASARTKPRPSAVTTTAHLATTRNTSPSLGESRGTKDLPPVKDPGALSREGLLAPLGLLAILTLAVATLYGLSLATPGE
The experiment can be described thus: hTREX1 Biochemical Assay (fluorescence, dsDNA substrate degradation). The following applies: biochemical, read-out: hTREX1 IC50. Put shortly: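 Fluorescence rises as enzyme degrades a quenched TEX615-labelled dsDNA substrate (60 nM) in 50 mM Tris, 150 mM NaCl, 5 mM MgCl2, pH 7.4. Full-length His-Tev-tagged human TREX1, 4 pM, sits with compound 4 hours at 25° C before substrate; reaction 18 hours, stopped with EDTA.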

The target in experiment [3] is T3, human TREX2 (residues M44-A279) (Homo sapiens, UniProt Q9BQ50).
T3 construct: human TREX2 (residues M44-A279, expressed in E. coli); made in house; host or cells: E. coli
T3 sequence (Q9BQ50 44-279 isoform Q9BQ50-1): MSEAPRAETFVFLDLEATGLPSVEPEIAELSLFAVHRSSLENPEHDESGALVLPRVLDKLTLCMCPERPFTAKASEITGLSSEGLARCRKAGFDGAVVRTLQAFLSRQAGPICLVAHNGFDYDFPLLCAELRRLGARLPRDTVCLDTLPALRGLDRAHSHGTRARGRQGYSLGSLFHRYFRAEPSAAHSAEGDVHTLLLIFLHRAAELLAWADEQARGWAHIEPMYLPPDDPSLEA
Nature of the experiment: hTREX2 Biochemical Assay (fluorescence, dsDNA substrate degradation). The following applies: biochemical selectivity for hTREX1 vs hTREX2. Put shortly:
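Fluorogenic dsDNA degradation read at 615 nm (570 nm excitation) after EDTA quench. Final 60 nM substrate, 50 pM His-Tev-tagged enzyme, 5 mM MgCl2, pH 7.4, 1.0% DMSO; 4 h compound–enzyme preincubation then 18 h reaction, both 25 °C; 10-point titration.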

pIC50: −log10 of the molar value.

As for `CC(c1nc(C(=O)Nc2cnoc2)c(O)c(=O)n1C)C(c1cnn(C)c1)c1ccc(C(=O)N(C)C)cc1C#N` (single isomer, unassigned) [Example 11 D1E2], the pIC50 in experiment [1] and in experiment [2] was under 8.00 in each case. Moreover, in experiment [3], the “hTREX1 vs hTREX2 selectivity” value was “B (B = 25 to 50-fold selective for hTREX1)”.

With `CC(c1nc(C(=O)Nc2cnoc2)c(O)c(=O)n1C)C(c1cnn(CC(C)(C)O)c1)c1ccccc1Cl` (single isomer, unassigned) [Example 86 D1E2], the values for the pIC50 in experiment [1] and in experiment [2] were under 8.00 and 8.00 to 9.00, respectively. The “hTREX1 vs hTREX2 selectivity” value in experiment [3] is on record as “A (A = <25 fold selective for hTREX1)”.

Turning to `Cc1cc(C(c2cc(F)ccc2C#N)C(C)c2nc(C(=O)Nc3cnoc3)c(O)c(=O)n2C)nn1C` (single isomer, unassigned) [Example 112 D2E2], the pIC50 in experiment [1] and in experiment [2] was under 8.00 throughout. For the same molecule, the “hTREX1 vs hTREX2 selectivity” value in experiment [3] is listed as “A (A = <25 fold selective for hTREX1)”.

For `Cc1cnn(C(c2ccccc2Cl)C(C)c2nc(C(=O)Nc3cnoc3)c(O)c(=O)n2C)c1` (single isomer, unassigned) [Example 133 D1E1], the pIC50 in experiment [1] and in experiment [2] was under 8.00 in each case. The “hTREX1 vs hTREX2 selectivity” value in experiment [3] was “A (A = <25 fold selective for hTREX1)”.

Regarding `Cc1cnc(C)c(C(c2ccccc2Cl)C(C)c2nc(C(=O)Nc3cnoc3)c(O)c(=O)n2C)n1` (single isomer, unassigned) [Example 120 D1E2], the pIC50 in experiment [1] and in experiment [2] was under 8.00 in each case. Besides, the “hTREX1 vs hTREX2 selectivity” value in experiment [3] is listed as “A (A = <25 fold selective for hTREX1)”.

With `Cc1nn(C)cc1C(c1cc(F)ccc1C#N)C(c1nc(C(=O)Nc2cnoc2)c(O)c(=O)n1C)C(F)(F)F` (single isomer, unassigned) [Example 42 D2E1], the pIC50 – broadly, −log10 of the IC50, conventionally taken in molar units – is under 8.00 in experiment [1] and 8.00 to 9.00 in experiment [2]. Besides, in experiment [3], the “hTREX1 vs hTREX2 selectivity” value is given as “B (B = 25 to 50-fold selective for hTREX1)”.

Turning to `CC(c1nc(C(=O)Nc2cnoc2)c(O)c(=O)n1C)C(c1cnn(CC(F)F)c1)c1cc(F)ccc1C#N` (single isomer, unassigned) [Example 102 D1E1], the pIC50 in experiment [1] and in experiment [2] was under 8.00 each time. For the same molecule, the “hTREX1 vs hTREX2 selectivity” value in experiment [3] is given as “A (A = <25 fold selective for hTREX1)”.

With `CC(c1nc(C(=O)Nc2cnoc2)c(O)c(=O)n1C)C(c1ccccc1Cl)n1cccn1` (single isomer, unassigned) [Example 45 D1E2], the pIC50 in experiment [1] and in experiment [2] was under 8.00 in each case. Also, the “hTREX1 vs hTREX2 selectivity” value in experiment [3] is reported as “A (A = <25 fold selective for hTREX1)”.

On to `CC(c1nc(C(=O)Nc2cnoc2)c(O)c(=O)n1C)C(c1cnn(CCN2CCN(C)CC2)c1)c1ccccc1C#N` (single isomer, unassigned) [Example 32 D2E1], for which the pIC50 in experiment [1] and in experiment [2] was under 8.00 each time. In experiment [3], the “hTREX1 vs hTREX2 selectivity” value was “C (C = >50 fold selective for hTREX1)”.

Take `CC(c1nc(C(=O)Nc2cnoc2)c(O)c(=O)n1C)C(c1ccccc1Cl)n1cc(C(F)(F)F)cn1` (single isomer, unassigned) [Example 139 D1E2]: the pIC50 in experiment [1] and in experiment [2] was under 8.00 throughout. In addition, in experiment [3], the “hTREX1 vs hTREX2 selectivity” value is listed as “A (A = <25 fold selective for hTREX1)”.

On to `CC(c1nc(C(=O)Nc2cnoc2)c(O)c(=O)n1C)C(c1ccccc1C#N)c1nnnn1C` (single isomer, unassigned) [Example 131 D1E1], for which the pIC50 in experiment [1] and in experiment [2] was under 8.00 each time. For the same molecule, the “hTREX1 vs hTREX2 selectivity” value in experiment [3] was “A (A = <25 fold selective for hTREX1)”.

With `Cc1cc(C(c2cc(F)ccc2Cl)C(C)c2nc(C(=O)Nc3cnoc3)c(O)c(=O)n2C)n(C)n1` (single isomer, unassigned) [Example 113 D2E1], the pIC50 in experiment [1] and in experiment [2] was under 8.00 throughout. The “hTREX1 vs hTREX2 selectivity” value in experiment [3] is given as “A (A = <25 fold selective for hTREX1)”.

Turning to `CC(c1nc(C(=O)Nc2cnoc2)c(O)c(=O)n1C)C(c1cn[nH]c1)c1ccccc1C#N` (single isomer, unassigned) [Example 12 D1E2], the pIC50 in experiment [1] and in experiment [2] was under 8.00 each time. For the same molecule, in experiment [3], the “hTREX1 vs hTREX2 selectivity” value is “B (B = 25 to 50-fold selective for hTREX1)”.

As for `CC(c1nc(C(=O)Nc2cnoc2)c(O)c(=O)n1C)C(c1cnn(C)c1)c1ccc(O)cc1C#N` (single isomer, unassigned) [Example 80 D2E2], the pIC50 is under 8.00 in experiment [1] and 8.00 to 9.00 in experiment [2]. Besides, the “hTREX1 vs hTREX2 selectivity” value in experiment [3] is “B (B = 25 to 50-fold selective for hTREX1)”.

`CCn1ncc(C(c2ccc(F)cc2C#N)C(C)c2nc(C(=O)Nc3cnoc3)c(O)c(=O)n2C)c1C` (single isomer, unassigned) [Example 65 D2E1]: the pIC50 in experiment [1] is under 8.00; in experiment [2] it was 8.00 to 9.00. Further, the “hTREX1 vs hTREX2 selectivity” value in experiment [3] is given as “C (C = >50 fold selective for hTREX1)”.

`CC(C)c1cnn(C(c2ccccc2Cl)C(C)c2nc(C(=O)Nc3cnoc3)c(O)c(=O)n2C)c1` (single isomer, unassigned) [Example 135 D1E2]: the pIC50 in experiment [1] and in experiment [2] was under 8.00 in each case. Moreover, in experiment [3], the “hTREX1 vs hTREX2 selectivity” value was “A (A = <25 fold selective for hTREX1)”.

For `Cc1cc(C)n(C(c2ccccc2C#N)C(C)c2nc(C(=O)Nc3cnoc3)c(O)c(=O)n2C)n1` (single isomer, unassigned) [Example 137 D1E2], the pIC50 in experiment [1] and in experiment [2] was under 8.00 in each case. Besides, in experiment [3], the “hTREX1 vs hTREX2 selectivity” value is “A (A = <25 fold selective for hTREX1)”.

As to `CC(c1nc(C(=O)Nc2cnoc2)c(O)c(=O)n1C)C(c1cnn(CC(C)(C)C#N)c1)c1cc(F)ccc1Cl` (single isomer, unassigned) [Example 99 D1E2], the pIC50 in experiment [1] and in experiment [2] was 8.00 to 9.00 in each case. In addition, the “hTREX1 vs hTREX2 selectivity” value in experiment [3] is “B (B = 25 to 50-fold selective for hTREX1)”.

On to `Cc1cnc(C(c2cc(F)ccc2Cl)C(C)c2nc(C(=O)Nc3cnoc3)c(O)c(=O)n2C)cn1` (single isomer, unassigned) [Example 117 D2E2], for which the pIC50 in experiment [1] and in experiment [2] was under 8.00 throughout. In addition, the “hTREX1 vs hTREX2 selectivity” value in experiment [3] is “A (A = <25 fold selective for hTREX1)”.

Turning to `Cc1cnc(C)c(C(c2ccccc2C#N)C(C)c2nc(C(=O)Nc3cnoc3)c(O)c(=O)n2C)n1` (single isomer, unassigned) [Example 82 D2E2], the pIC50 in experiment [1] and in experiment [2] was under 8.00 throughout. Also, in experiment [3], the “hTREX1 vs hTREX2 selectivity” value is recorded as “B (B = 25 to 50-fold selective for hTREX1)”.

Consider `CC(c1nc(C(=O)Nc2cnoc2)c(O)c(=O)n1C)C(c1ccccc1Cl)n1nccc1C#N` (single isomer, unassigned) [Example 140 D1E2], for which the pIC50 in experiment [1] and in experiment [2] was under 8.00 throughout. In addition, the “hTREX1 vs hTREX2 selectivity” value in experiment [3] is listed as “A (A = <25 fold selective for hTREX1)”.

In the case of `Cn1cc(C(c2ccccc2C#N)C(c2nc(C(=O)Nc3cnoc3)c(O)c(=O)n2C)C(F)(F)F)cn1` (single isomer, unassigned) [Example 40 D2E2], the pIC50 in experiment [1] and in experiment [2] was under 8.00 throughout. Besides, in experiment [3], the “hTREX1 vs hTREX2 selectivity” value was “B (B = 25 to 50-fold selective for hTREX1)”.

Turning to `Cc1ncc(C(c2ccccc2C#N)C(C)c2nc(C(=O)Nc3cnoc3)c(O)c(=O)n2C)nc1C` (single isomer, unassigned) [Example 81 D1E1], the pIC50 in experiment [1] and in experiment [2] was under 8.00 in each case. In experiment [3], the “hTREX1 vs hTREX2 selectivity” value is on record as “A (A = <25 fold selective for hTREX1)”.

On to `CC(c1nc(C(=O)Nc2cnoc2)c(O)c(=O)n1C)C(c1cnn(C)c1)c1ccc(F)cc1C#N` (single isomer, unassigned) [Example 15 D2E1], for which the pIC50 in experiment [1] and in experiment [2] was under 8.00 throughout. The “hTREX1 vs hTREX2 selectivity” value in experiment [3] is “B (B = 25 to 50-fold selective for hTREX1)”.
